Experimental data taken from the SangsterLogP compilation.

Row | SMILES | logP
1 | Clc1ccc(-c2cc(Cl)ccc2Cl)cc1 | 5.56
2 | CC(C)OC(=O)[C@H](C)N(C(=O)c1ccccc1)c1ccc(F)c(Cl)c1 (racemic) | 4.41
3 | COc1c(Cl)ccc(Cl)c1C(=O)O | 3.01
4 | O=C(O)COc1nc(Cl)c(Cl)cc1Cl | 2.09
5 | COc1cc(Cl)c(OC)cc1Cl | 3.46
6 | Brc1c(Br)c(Br)c(Br)c(Br)c1Br | 6.51
7 | COP(=S)(OC)Oc1ccc(S(=O)(=O)N(C)C)cc1 | 2.28
8 | CCN(CC)C(=O)C(Cl)=C(C)OP(=O)(OC)OC | 1.34
9 | COC(=O)C(C)N(C(=O)c1ccccc1)c1ccc(F)c(Cl)c1 (racemic) | 3.48
10 | Cc1nc(C)c(Cl)c(O)c1Cl | 0.5
11 | CC(C)Oc1cc(-n2nc(C(C)(C)C)oc2=O)c(Cl)cc1Cl | 4.09
12 | CCOC(=O)C(C)N(C(=O)c1ccccc1)c1ccc(Cl)c(Cl)c1 (racemic) | 4.57
13 | C=C1C(CCl)(CCl)C2(Cl)C(Cl)C(Cl)C1(Cl)C2(Cl)Cl (mixture of isomers) | 5.5
14 | ClC=C(c1ccc(Cl)cc1)c1ccc(Cl)cc1 | 5.27
